Data published in the NIST ThermoML archive (doi:10.1016/j.jct.2013.11.027).

Key:
[1] = refractive index (Na D-line) (dimensionless); xn = mol fraction of the nth substance listed; conditions: 101 kPa, Liquid, Standard Abbe refractometry
[2] = xn = mol fraction of the nth substance listed; conditions: 101 kPa, Liquid; for speed of sound: Sing-around technique in a fixed-path interferometer; for mass density: Vibrating tube method

CCCCCCn1cc[n+](C)c1.F[B-](F)(F)F [1-hexyl-3-methylimidazolium tetrafluoroborate] + C1CCOC1
Conditions	mass density, 298.15 K [kg/m3]	mass density, 308.15 K [kg/m3]	mass density, 318.15 K [kg/m3]	refractive index, 298.15 K	refractive index, 308.15 K	refractive index, 318.15 K	speed of sound, 298.15 K [m/s]	speed of sound, 308.15 K [m/s]	speed of sound, 318.15 K [m/s]
[1], x1 = 0.0989	–	–	–	1.41416	1.41006	1.40595	–	–	–
[1], x1 = 0.2022	–	–	–	1.42016	1.41657	1.41275	–	–	–
[1], x1 = 0.3014	–	–	–	1.42373	1.42043	1.4171	–	–	–
[1], x1 = 0.3985	–	–	–	1.42607	1.42284	1.41964	–	–	–
[1], x1 = 0.5109	–	–	–	1.4279	1.42491	1.42175	–	–	–
[1], x1 = 0.5974	–	–	–	1.42888	1.42609	1.42305	–	–	–
[1], x1 = 0.6974	–	–	–	1.42974	1.427	1.42418	–	–	–
[1], x1 = 0.8045	–	–	–	1.4305	1.42774	1.42511	–	–	–
[1], x1 = 0.8865	–	–	–	1.43095	1.42822	1.42548	–	–	–
[1], x1 = 1	–	–	–	1.43167	1.4289	1.42612	–	–	–
[2], x1 = 0.0989	954.559	945.509	936.105	–	–	–	1306.3	1263.5	1221.2
[2], x1 = 0.2022	1005.23	996.175	987.171	–	–	–	1346.4	1308	1270.1
[2], x1 = 0.3014	1040.84	1032.56	1023.55	–	–	–	1379.6	1344.7	1310.1
[2], x1 = 0.3985	1066.08	1058.03	1049.53	–	–	–	1406.7	1374.4	1342.6
[2], x1 = 0.5109	1089.28	1081.23	1072.72	–	–	–	1431.3	1401.3	1371.8
[2], x1 = 0.5974	1103.2	1095.15	1087.75	–	–	–	1447	1418.5	1390.3
[2], x1 = 0.6974	1116.29	1109.24	1102.04	–	–	–	1462.8	1435.6	1408.7
[2], x1 = 0.8045	1128.3	1121.25	1114.44	–	–	–	1477.3	1451.1	1425.4
[2], x1 = 0.8865	1135.58	1128.53	1121.52	–	–	–	1486.9	1461.3	1436.2
[2], x1 = 1	1145.11	1137.71	1130.49	–	–	–	1496.7	1472	1447.7

CCCCCCn1cc[n+](C)c1.F[B-](F)(F)F [1-hexyl-3-methylimidazolium tetrafluoroborate] + C1COCCO1
Conditions	mass density, 298.15 K [kg/m3]	mass density, 308.15 K [kg/m3]	mass density, 318.15 K [kg/m3]	refractive index, 298.15 K	refractive index, 308.15 K	refractive index, 318.15 K	speed of sound, 298.15 K [m/s]	speed of sound, 308.15 K [m/s]	speed of sound, 318.15 K [m/s]
[1], x1 = 0.0956	–	–	–	1.4241	1.42009	1.41587	–	–	–
[1], x1 = 0.2039	–	–	–	1.42717	1.42329	1.41958	–	–	–
[1], x1 = 0.2945	–	–	–	1.42874	1.42525	1.42174	–	–	–
[1], x1 = 0.368	–	–	–	1.42944	1.42625	1.42294	–	–	–
[1], x1 = 0.4876	–	–	–	1.43034	1.42727	1.42429	–	–	–
[1], x1 = 0.5831	–	–	–	1.43075	1.42802	1.42519	–	–	–
[1], x1 = 0.6816	–	–	–	1.43106	1.42839	1.42546	–	–	–
[1], x1 = 0.7695	–	–	–	1.43149	1.42861	1.42574	–	–	–
[1], x1 = 0.8594	–	–	–	1.43152	1.42868	1.42604	–	–	–
[1], x1 = 1	–	–	–	1.43167	1.4289	1.42612	–	–	–
[2], x1 = 0.0956	1060.24	1050.11	1040.21	–	–	–	1373.3	1332.3	1291
[2], x1 = 0.2039	1084.24	1074.91	1065.52	–	–	–	1403	1364.1	1324.8
[2], x1 = 0.2945	1098.98	1089.94	1081.15	–	–	–	1422	1384.1	1346.8
[2], x1 = 0.368	1107.75	1099.02	1090.42	–	–	–	1434	1398.1	1362.7
[2], x1 = 0.4876	1119.03	1110.69	1102.5	–	–	–	1450.5	1417.6	1384.3
[2], x1 = 0.5831	1125.92	1118.09	1110.2	–	–	–	1461	1430.1	1398.7
[2], x1 = 0.6816	1131.92	1124.09	1116.5	–	–	–	1470.5	1441.5	1412.2
[2], x1 = 0.7695	1136.19	1128.65	1121.26	–	–	–	1478.1	1450.5	1423.2
[2], x1 = 0.8594	1140.02	1132.69	1125.9	–	–	–	1485.9	1459.7	1433.3
[2], x1 = 1	1145.11	1137.71	1130.49	–	–	–	1496.7	1472	1447.7
